Where a name gives a salt, the structure may show the parent alone. Read-outs that look alike come from different tables or passages of the source.
Tests used:
[1] = test system: MCF-7; test: In vitro cytotoxicity, 3-day MTT assay, MCF-7; format: cell-based, human; details: for IC50: 3-day MTT assay
Experimental: (§1) In carrying out the following cytoloxicity assays, the method used corresponds substantially to the following example: • Cells were maintained in a continuous logarithmic culture in RMPI 1640 with L-glutamine medium, supplemented with 10% fetal calf serum, penicillin (100 IU/ml) and streptomycin (100 μg/ml). The cells were mildly trypsinized for passage and for use in assays. • On day one, 180 μl of trypsinized tumour cells (5×10^3 ml^−1) were placed in the wells of 96-well, flat-bottom microtiter plates. Columns 1 and 12 were filled with 300 μl medium to protect from evaporation. The plates were incubated for 24 hours at 37° C. and 5% CO2 in air to allow the cells to adhere and resume exponential growth prior to the addition of drugs. The compounds being tested were dissolved in DMSO and stored as 10 mM stock solutions at 4° C., protected from light. […] 20 μl of drug dilution was added to the other wells with the lowest concentration in column 3 and the highest concentration in column 11. The plates were incubated for 72 hours at 37° C. and 5% CO2 in air. Each compound was tested in triplicate. At the time of drug addition, a plate of untreated cells was read to provide an initial optical density value for use in the calculation of the IC50. • On day five the plates were read. 50 μl MTT (1 mg/ml^−1) was added per well and the plates incubated for a further 4 hours. The MTT is metaboliscd to form a blue formazan product. The MTT solution was aspirattd and 125 μl DMSO:glycine buffer (4:1) was added. The plates were placed on a plate shaker until the fornazan crystals had dissolved and absorbance was ready at 550 nm on a plate reader. • For each compound tested, a dose response curve was obtained and the IC50 statue (drug concentration at 50% inhibition of cell growth) was calculated.
(§2) (n=8) for a range of compounds in relation to MCF-7 and MDA 468 cell lines.

[2] = test system: MDA468; test: In vitro cytotoxicity, 3-day MTT assay, MDA468; format: cell-based
Experimental: as §1, §2

[3] = test system: ER positive MCF-7 human breast tumor xenografts; details: for in vivo growth retardation of MCF-7 xenografts: prodrugs
[4] = test system: COLO205 xenografts; test: In vivo COLO205 xenograft study (FIG. 2)
[5] = test system: sensitive cell lines; test: Biphasic dose-response relationship (second growth phase) in sensitive cell lines; format: cell-based
From the text: One feature of the prior art compounds is that they show a biphasic dose-response relationship specifically in sensitive cell lines: cell kill occurs at low nanomolar concentrations of the compounds, followed by a potentially undesirable proliferative response at low micromolar concentrations (termed the “second growth phase”).

[6] = Blood parameters and liver transaminases in xenograft studies; parameters: species or system nude mice; details: mouse, in vivo
[7] = test system: ER negative MT-1 human breast tumor xenografts; details: for in vivo growth retardation of MT-1 xenografts: prodrugs
[8] = rats, i.v., typical dose 25 mg/kg
[9] = Stability in plasma in vitro; format: in vitro ADME, rat; details: hydrochloride salts; rat and other mammalian plasma
[10] = 72 h, asterisked values, IC50 concentration in μM
[11] = surviving mice treated with prodrug

7-Fluoro-2-(4′-imino-3′-methylphenyl)benzothiazole [Ih]
IC50 ([1]; n=8): 0.00239 µM
IC50 ([2]; n=8): 0.0103 µM

Cc1cc(-c2nc3c(F)cccc3s2)ccc1N [Compound Ia]
IC50 ([1]; n=8): < 0.0001 µM
IC50 ([2]; n=8): 0.00013 µM

Cc1cc(-c2nc3cc(I)ccc3s2)ccc1N [Compound Iak, 5-Iodo-2-(4′-amino-3′-methylphenyl)benzothiazole]
IC50 ([1]; Homo sapiens, MCF7, 72 h, n=8): 0.493 µM
melting point: 200 to 202 °C
IC50 [2, 10]: 80.9 µM

Cc1cc(-c2nc3ccc(F)cc3s2)ccc1NC(=O)C(C)N (centres unmarked) [Iac, 6-Fluoro-2-(4′-amino-3′-Methylphenyl)benzothiazole Alanyl Amide Hydrochloride Salt]
IC50 ([1]; n=8): 0.044 µM
IC50 ([2]; n=8): 0.297 µM

Cc1cc(-c2nc3ccc(F)cc3s2)ccc1NC(=O)C(N)CCCCN (centres unmarked) [Iae, 6-Fluoro-2-(4′-amino-3′-methylphenyl)benzothiazole Lysyl Amide Dihydrochloride Salt]
IC50 ([1]; n=8): 0.147 µM
IC50 ([2]; n=8): 0.328 µM

Cc1cc(-c2nc3cc(F)ccc3s2)ccc1NC(=O)C(C)N.Cl (centres unmarked) [Iaf, 5-Fluoro-2-(4′-amino-3′-metbylphenyl)benzothiazole Alanyl Amide Hydrochloride Salt]
IC50 ([1]; n=8): 0.00589 µM
IC50 in MCF-7 cells, fold lower than that of other amido prodrugs ([1]; compared with other prodrugs): > 5 fold
IC50 ([2]; n=8): 0.0377 µM

Cc1cc(-c2nc3cccc(I)c3s2)ccc1N [Ial, 7-Iodo-2-(4′-amino-3′-methylphenyl)benzothiazole]
IC50 ([1]; Homo sapiens, MCF7, 72 h, n=8): 0.0283 µM
IC50 ([2]; 72 h, n=8): 0.323 µM

CC(=O)Nc1ccc(-c2nc3cc(F)ccc3s2)cc1C [Iam, 5-Fluoro-2-(4′-acetamido-3′-methylphenyl)benzothiazole]
IC50 ([1]; Homo sapiens, MCF7, 72 h, asterisked values, IC50 concentration in μM): 7.64 µM
melting point: 219 to 221 °C
IC50 [2, 10]: 5.84 µM

N#Cc1cc(-c2nc3cc(F)ccc3s2)ccc1N [Ian, 5-Fluoro-2-(4′-amino-3′-cyanophenyl)benzothiazole]
IC50 ([1]; Homo sapiens, MCF7, 72 h, n=8): < 0.0001 µM
melting point: 268 to 270 °C
IC50 ([2]; 72 h, n=8): < 0.0001 µM

Nc1ccc(-c2nc3cc(F)ccc3s2)cc1CO [Iaq, 5-Fluoro-2-(4′-amino-3′-(hydroxymethyl)phenyl)benzothiazole]
IC50 ([1]; Homo sapiens, MCF7, 72 h, n=8): < 0.0001 µM
melting point: 242 to 245 °C
IC50 ([2]; 72 h, n=8): 0.00043 µM

Cc1cc(-c2nc3cc(F)c(F)cc3s2)ccc1NC(=O)C(C)N (centres unmarked) [Iar, 5,6-Difluoro-2-(4′-amino-3′-methylphenyl)benzothiazole Alany Amide Hydrochloride Salt]
IC50 ([1]; n=8): 0.0331 µM
IC50 ([2]; n=8): 0.217 µM

Cc1cc(-c2nc3cc(F)c(F)cc3s2)ccc1NC(=O)C(N)CCCCN (centres unmarked) [Ias, 5,6-Difluoro-2-(4′-amino-3′-methylphenyl)benzothiazole Lysyl Amide Dihydrochloride]
IC50 ([1]; n=8): 0.0307 µM
IC50 ([2]; n=8): 0.302 µM

Cc1cc(-c2nc3ccc(F)cc3s2)ccc1N [Ib, 6-Fluoro-2-(4′-amino-3′-methylphenyl)benzothiazole]
growth inhibition of MCF-7 xenografts ([3]; given i.p.): Significant growth inhibition
IC50 ([1]; Homo sapiens, MCF7, 72 h, n=8): < 0.0001 µM
tumour growth inhibition, COLO205 xenografts (FIG. 2) [4]: tumour growth inhibition observed
biphasic dose-response (second growth phase) [5]: the biphasic response is eliminated
IC50 ([2]; 72 h, n=8): 0.00011 µM
blood parameters (white blood cell and platelet counts) and level of liver transaminases [6]: not adversely affected
growth inhibition of MT-1 xenografts compared with same dose of (Ik) ([7]; 12.5 mg/kg): more pronounced growth inhibition
tumor growth inhibition in MT-1 xenografts ([7]; dose dependence): dose-dependent tumor growth inhibition
weight loss in MT-1 xenograft study ([7]; dose dependence): weight loss

Nc1ccc(-c2nc3c(F)cccc3s2)cc1 [Ic, 4-Fluoro2-(4-aminophenyl)benzothiazole]
IC50 ([1]; Homo sapiens, MCF7, 72 h, n=8): 0.00854 µM
IC50 ([2]; 72 h, n=8): 0.0294 µM

Nc1ccc(-c2nc3ccc(F)cc3s2)cc1 [Id, 6-Fluoro2-(4′-aminophenyl)benzothiazole]
IC50 ([1]; Homo sapiens, MCF7, 72 h, n=8): < 0.0001 µM
IC50 ([2]; 72 h, n=8): 0.0481 µM

Cc1cc(-c2nc3c(F)c(F)ccc3s2)ccc1N [Ie, 4,5-Difluoro-2-(4′-amino-3′-methylphenyl)benzothiazole]
IC50 ([1]; Homo sapiens, MCF7, 72 h, n=8): 0.00064 µM
IC50 ([2]; 72 h, n=8): 0.00067 µM

Cc1cc(-c2nc3c(F)cc(F)cc3s2)ccc1N [If]
IC50 ([1]; n=8): < 0.0001 µM
IC50 ([2]; n=8): 0.00535 µM

Cc1cc(-c2nc3cc(F)cc(F)c3s2)ccc1N [Ig, 5,7-Difluoro-2-(4′-amino3′-methylphenyl)benzothiazole]
IC50 ([1]; Homo sapiens, MCF7, 72 h, n=8): 0.0009 µM
IC50 ([2]; 72 h, n=8): 0.0044 µM

Cc1cc(-c2nc3cc(F)c(F)cc3s2)ccc1N [Ii, 5,6-Difluoro-2-(4′-amino-3′-methylphenyl)benzothiazole]
IC50 ([1]; Homo sapiens, MCF7, 72 h, n=8): < 0.0001 µM
IC50 ([2]; 72 h, n=8): 0.00355 µM

Nc1ccc(-c2nc3cc(F)ccc3s2)cc1 [Il, 5-Fluoro-2-(4′-aminophenyl)benzothiazole]
IC50 ([1]; Homo sapiens, MCF7, 72 h, n=8): < 0.0001 µM
IC50 ([2]; 72 h, n=8): < 0.0001 µM

Nc1ccc(-c2nc3c(F)cccc3s2)cc1I [Im, 4-Fluoro-2-(4′-amino-3′-iodophenyl)benzothiazole]
IC50 ([1]; Homo sapiens, MCF7, 72 h, n=8): 0.00788 µM
IC50 ([2]; 72 h, n=8): 0.00911 µM

Nc1ccc(-c2nc3cc(F)ccc3s2)cc1I [In, 5-Fluoro-2-(4′-amino-3′-iodophenyl)benzothiazole]
IC50 ([1]; Homo sapiens, MCF7, 72 h, n=8): < 0.0001 µM
IC50 ([2]; 72 h, n=8): < 0.0001 µM

Nc1ccc(-c2nc3ccc(F)cc3s2)cc1I [Io, 6-Fluoro-2-(4′-amino-3′-iodophenyl)benzothiazole]
IC50 ([1]; Homo sapiens, MCF7, 72 h, n=8): < 0.0001 µM
IC50 ([2]; 72 h, n=8): < 0.0001 µM

Nc1ccc(-c2nc3c(F)cccc3s2)cc1Cl [Ip, 4-Fluoro-2-(4′-amino-3′-chlorophenyl)benzothiazole]
IC50 ([1]; Homo sapiens, MCF7, 72 h, n=8): 0.00095 µM
IC50 ([2]; 72 h, n=8): 0.00193 µM

Nc1ccc(-c2nc3cc(F)ccc3s2)cc1Cl [Iq, 5-Fluoro-2-(4′-amino-3′-chlorophenyl)benzothiazole]
IC50 ([1]; Homo sapiens, MCF7, 72 h, n=8): 0.00709 µM
IC50 ([2]; 72 h, n=8): 0.0189 µM

Nc1ccc(-c2nc3ccc(F)cc3s2)cc1Cl [Ir, 6-Fluoro-2-(4′-amino3′chlorophenYl)bcnzothiazole]
IC50 ([1]; n=8): 0.00408 µM
IC50 ([2]; n=8): 0.0117 µM

Nc1ccc(-c2nc3c(F)cccc3s2)cc1Br [Is, 4-Fluoro-2-(4′amino-3′-bromophenyl)benzothiazole]
IC50 ([1]; Homo sapiens, MCF7, 72 h, n=8): 0.0382 µM
IC50 ([2]; 72 h, n=8): 0.024 µM

Nc1ccc(-c2nc3cc(F)ccc3s2)cc1Br [It, 5-Fluoro-2-(4′-amino-3′-bromophenyl)benzothiazole]
IC50 ([1]; Homo sapiens, MCF7, 72 h, n=8): < 0.0001 µM
IC50 ([2]; 72 h, n=8): 0.0002 µM

Nc1ccc(-c2nc3ccc(F)cc3s2)cc1Br [Iu, 6-Fluoro2-(4′-amino-3′-bromophenyl)benzothiazole]
IC50 ([1]; Homo sapiens, MCF7, 72 h, n=8): 0.0455 µM
IC50 ([2]; 72 h, n=8): 0.0687 µM

CC(N)C(=O)Nc1ccc(-c2nc3ccccc3s2)cc1.Cl (centres unmarked) [Iv, 2-(4′-Aminophenyl)benzothiazole Alanyl Amide Hydrochloride Salt]
IC50 ([1]; n=8): 0.06 µM
tumour growth inhibition, COLO205 xenografts (FIG. 2) [4]: tumour growth inhibition observed
IC50 ([2]; n=8): 0.04 µM

Cc1cc(-c2nc3ccccc3s2)ccc1NC(=O)C(C)N.Cl (centres unmarked) [Iw, 2-(4′-Amino-3′-methylphenyl)benzothiazole Alanyl Amide Hydrochloride Salt]
growth retardation of MCF-7 xenografts compared with (Iz) ([3]; 12.5 mg/kg given i.v.): greater extent of growth retardation
in vivo growth retardation of MCF-7 xenografts [3]: significant in vivo growth retardation
removal from plasma and reconversion to parent compound in vivo [8]: readily removed from such plasma and reconverted to their parent compound in vivo
IC50 ([1]; n=8): 0.36 µM
IC50 ([2]; n=8): 0.34 µM
stability in plasma in vitro [9]: stable
in vivo growth retardation of MT-1 xenografts [7]: significant in vivo growth retardation
tumor growth inhibition in MT-1 xenografts [7, 11]: moderate tumor growth inhibition

Cc1cc(-c2nc3ccccc3s2)ccc1NC(=O)C(N)CCCCN.Cl.Cl (centres unmarked) [Iz, 2-(4′-Amino-3′-methylphenyl)benzothiazole Lysyl Amide Dihydrochioride Salt]
body weight loss ([3]; prodrug, dose dependence): Dose-dependent body weight loss
in vivo growth retardation of MCF-7 xenografts [3]: significant in vivo growth retardation
removal from plasma and reconversion to parent compound in vivo [8]: readily removed from such plasma and reconverted to their parent compound in vivo
IC50 ([1]; n=8): 0.08 µM
IC50 ([2]; n=8): 0.07 µM
stability in plasma in vitro [9]: stable
in vivo growth retardation of MT-1 xenografts [7]: significant in vivo growth retardation
tumor growth inhibition in MT-1 xenografts [7, 11]: moderate tumor growth inhibition

From patent publication US6858633B1, “Substituted 2-arylbenzazole compounds and their use as antitumour agents” (Cancer Research Technology Limited, priority 1999, dated 2005)
